# Target: SIK2 (Homo sapiens (Human), UniProt Q9H0K1)
# Experiment: SIK2 Enzymatic Assay Version 2 (High ATP)
# Format: biochemical
# Conditions: 3 mM ATP and 200 μM HDAC5tide final, ADP-Glo Max luminescence
# In short: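 Luminescent ADP-Glo Max read-out: depletion reagent 2 h, then detection reagent 1 h. Before the reaction, compounds were incubated 30 min with enzyme added at 6 nM (twice final concentration), with all steps at room temperature.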
# Chain of SIK2 (Q9H0K1 whole entry, species assumed): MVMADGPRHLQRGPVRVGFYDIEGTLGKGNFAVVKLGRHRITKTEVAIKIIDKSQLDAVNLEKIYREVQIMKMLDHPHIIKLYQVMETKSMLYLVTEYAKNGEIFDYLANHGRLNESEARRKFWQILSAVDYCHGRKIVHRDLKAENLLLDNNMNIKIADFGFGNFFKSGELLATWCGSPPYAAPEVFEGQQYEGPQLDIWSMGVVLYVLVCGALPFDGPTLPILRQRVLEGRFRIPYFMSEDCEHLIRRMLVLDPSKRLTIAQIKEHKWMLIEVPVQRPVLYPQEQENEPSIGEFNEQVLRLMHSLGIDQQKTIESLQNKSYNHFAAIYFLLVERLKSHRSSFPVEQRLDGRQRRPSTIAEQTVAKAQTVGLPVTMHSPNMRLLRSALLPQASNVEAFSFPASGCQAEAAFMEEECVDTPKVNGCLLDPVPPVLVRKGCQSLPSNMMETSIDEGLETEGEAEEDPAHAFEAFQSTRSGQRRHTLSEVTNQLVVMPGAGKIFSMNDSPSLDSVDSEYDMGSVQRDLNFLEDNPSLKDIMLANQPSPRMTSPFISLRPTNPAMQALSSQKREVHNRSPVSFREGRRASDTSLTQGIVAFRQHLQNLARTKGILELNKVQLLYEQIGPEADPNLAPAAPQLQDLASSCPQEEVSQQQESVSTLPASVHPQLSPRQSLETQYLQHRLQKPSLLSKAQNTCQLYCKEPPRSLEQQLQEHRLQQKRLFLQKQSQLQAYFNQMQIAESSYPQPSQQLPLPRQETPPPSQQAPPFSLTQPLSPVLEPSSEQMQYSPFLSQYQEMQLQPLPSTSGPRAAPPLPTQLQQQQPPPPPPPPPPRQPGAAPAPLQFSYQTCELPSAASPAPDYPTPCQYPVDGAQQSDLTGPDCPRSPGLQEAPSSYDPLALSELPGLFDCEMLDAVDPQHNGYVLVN
row,IC50 [nM],Compound
1,< 0.847,"CCN1CC[C@@H]1COc1cnn(C)c1-c1ccn2nc(Nc3cncc(C)n3)cc2c1 [Example 20, (R)-5-(4-((1-Ethylazetidin-2-yl)methoxy)-1-methyl-1H-pyrazol-5-yl)-N-(6-methylpyrazin-2-yl)pyrazolo[1,5-a]pyridin-2-amine]"
2,0.9,"CCN1CC[C@@H]1COc1cnn(C)c1-c1ccn2nc(Nc3cnc(C)cn3)cc2c1 [Example 21, (R)-5-(4-((1-Ethylazetidin-2-yl)methoxy)-1-methyl-1H-pyrazol-5-yl)-N-(5-methylpyrazin-2-yl)pyrazolo[1,5-a]pyridin-2-amine]"
3,< 0.847,"CCN1CC[C@@H]1COc1cnn(C)c1-c1ccn2nc(Nc3cnc(C)c(C)n3)cc2c1 [Example 22, (R)—N-(5,6-Dimethylpyrazin-2-yl)-5-(4-((1-ethylazetidin-2-yl)methoxy)-1-methyl-1H-pyrazol-5-yl)pyrazolo[1,5-a]pyridin-2-amine]"
4,1.2,"Cc1ncc(Nc2cc3cc(-c4c(OC[C@H]5CCN5C)cnn4C)ccn3n2)nc1C [Example 23, N-(5,6-Dimethylpyrazin-2-yl)-5-[2-methyl-4-[[(2R)-1-methylazetidin-2-yl]methoxy]pyrazol-3-yl]pyrazolo[1,5-a]pyridin-2-amine]"
5,34.9,"C[C@@H]1CN(C)[C@H]1COc1cnn(C)c1-c1ccn2nc(NC(=O)C3CC3)cc2c1 [Example 24, N-[5-[4-[[(2R,3R)-1,3-Dimethylazetidin-2-yl]methoxy]-2-methyl-pyrazol-3-yl]pyrazolo[1,5-a]pyridin-2-yl]cyclopropanecarboxamide]"
6,5.8,"CCN1CC[C@@H]1COc1cnn(C)c1-c1ccn2nc(NC(=O)[C@H]3C[C@@H]3C)cc2c1 [Example 25, (1S,2S)—N-[5-[4-[[(2R)-1-ethylazetidin-2-yl]methoxy]-2-methyl-pyrazol-3-yl]pyrazolo[1,5-a]pyridin-2-yl]-2-methyl-cyclopropanecarboxamide]"
7,319,"CN1CC[C@@H]1COc1cnn(C)c1-c1ccn2nc(NC(=O)c3cnn(C)c3)cc2c1 [Example 26, 1-methyl-N-[5-[2-methyl-4-[[(2R)-1-methylazetidin-2-yl]methoxy]pyrazol-3-yl]pyrazolo[1,5-a]pyridin-2-yl]pyrazole-4-carboxamide]"
8,11.8,"Cn1ncc(OC[C@@H](O)c2ccccc2)c1-c1ccn2nc(NC(=O)C3CC3)cc2c1 [Example 27, N-[5-[4-[(2S)-2-hydroxy-2-phenyl-ethoxy]-2-methyl-pyrazol-3-yl]pyrazolo[1,5-a]pyridin-2-yl]cyclopropanecarboxamide]"
9,360,"COC1(COc2noc(C)c2-c2ccn3nc(NC(=O)C4CC4)cc3c2)CN(C)C1 [Example 29, N-[5-[3-[(3-methoxy-1-methyl-azetidin-3-yl)methoxy]-5-methyl-isoxazol-4-yl]pyrazolo[1,5-a]pyridin-2-yl]cyclopropanecarboxamide]"
10,5.2,"COC1(COc2noc(C)c2-c2ccn3nc(Nc4cc(C)nc(C)n4)cc3c2)CNC1 [Example 30, N-(2,6-dimethylpyrimidin-4-yl)-5-[3-[(3-methoxyazetidin-3-yl)methoxy]-5-methyl-isoxazol-4-yl]pyrazolo[1,5-a]pyridin-2-amine]"
11,1,"Cc1onc(OC[C@@H](N)c2ccccc2)c1-c1ccn2nc(NC(=O)C3CC3)cc2c1 [Example 31, N-[5-[3-[(2S)-2-amino-2-phenyl-ethoxy]-5-methyl-isoxazol-4-yl]pyrazolo[1,5-a]pyridin-2-yl]cyclopropanecarboxamide]"
12,6.6,"Cc1cc(Nc2cc3cc(-c4c(O[C@@H]5CNC[C@@H]5F)cnn4C(F)F)ccn3n2)nc(C)n1 [Example 32, 5-[2-(difluoromethyl)-4-[(3R,4S)-4-fluoropyrrolidin-3-yl]oxy-pyrazol-3-yl]-N-(2,6-dimethylpyrimidin-4-yl)pyrazolo[1,5-a]pyridin-2-amine]"
13,1.3,"Cc1cc(Nc2cc3cc(-c4c(OC[C@H]5CCN5C)cnn4C(F)F)ccn3n2)nn(C)c1=O [Example 33, 6-[[5-[2-(difluoromethyl)-4-[[(2R)-1-methylazetidin-2-yl]methoxy]pyrazol-3-yl]pyrazolo[1,5-a]pyridin-2-yl]amino]-2,4-dimethyl-pyridazin-3-one]"
14,10.3,"CN1CC[C@@H]1COc1cnn(C)c1-c1ccn2nc(Nc3ccc(C(=O)NCC(C)(C)C#N)cn3)cc2c1 [Example 36, N-(2-cyano-2-methyl-propyl)-6-[[5-[2-methyl-4-[[(2R)-1-methylazetidin-2-yl]methoxy]pyrazol-3-yl]pyrazolo[1,5-a]pyridin-2-yl]amino]pyridine-3-carboxamide]"
15,42.9,"COc1cc(Nc2cc3cc(-c4c(OC[C@H]5CCN5C)cnn4C)ccn3n2)cc(OC)c1C(=O)NC(C)C [Example 37, N-isopropyl-2,6-dimethoxy-4-[[5-[2-methyl-4-[[(2R)-1-methylazetidin-2-yl]methoxy]pyrazol-3-yl]pyrazolo[1,5-a]pyridin-2-yl]amino]benzamide]"
16,3.4,"Cc1ccc(Nc2cc3cc(-c4c(OC[C@H]5CCN5C)cnn4C)ccn3n2)nn1 [Example 39, 5-[2-methyl-4-[[(2R)-1-methylazetidin-2-yl]methoxy]pyrazol-3-yl]-N-(6-methylpyridazin-3-yl)pyrazolo[1,5-a]pyridin-2-amine]"
17,14.6,"Cc1cc(Nc2cc3cc(-c4c(OC[C@H]5CCN5)cnn4C)ccn3n2)nc(C)n1 [Example 42, 5-[4-[[(2R)-azetidin-2-yl]methoxy]-2-methyl-pyrazol-3-yl]-N-(2,6-dimethylpyrimidin-4-yl)pyrazolo[1,5-a]pyridin-2-amine]"
18,17.6,"Cn1ncc(OCC2(c3ccccc3)CNC2)c1-c1ccn2nc(NC(=O)C3CC3)cc2c1 [Example 44, N-[5-[2-methyl-4-[(3-phenylazetidin-3-yl)methoxy]pyrazol-3-yl]pyrazolo[1,5-a]pyridin-2-yl]cyclopropanecarboxamide]"
19,24.1,"Cc1cncc(Nc2cc3cc(-c4c(OC[C@H]5CCN5)cnn4C)ccn3n2)n1 [Example 45, 5-[4-[[(2R)-azetidin-2-yl]methoxy]-2-methyl-pyrazol-3-yl]-N-(6-methylpyrazin-2-yl)pyrazolo[1,5-a]pyridin-2-amine]"
20,2.5,"Cc1cncc(Nc2cc3cc(-c4c(OC[C@H]5CCN5C)cnn4C)ccn3n2)n1 [Example 46, 5-[2-methyl-4-[[(2R)-1-methylazetidin-2-yl]methoxy]pyrazol-3-yl]-N-(6-methylpyrazin-2-yl)pyrazolo[1,5-a]pyridin-2-amine]"
21,87.7,"CCN1CC[C@H]1COc1cnn(C)c1-c1ccn2nc(NC(=O)C3CC3)cc2c1 [Example 47, N-[5-[4-[[(2S)-1-ethylazetidin-2-yl]methoxy]-2-methyl-pyrazol-3-yl]pyrazolo[1,5-a]pyridin-2-yl]cyclopropanecarboxamide]"
22,269,"CC(C)N1CC[C@H]1COc1cnn(C)c1-c1ccn2nc(NC(=O)C3CC3)cc2c1 [Example 48, N-[5-[4-[[(2S)-1-isopropylazetidin-2-yl]methoxy]-2-methyl-pyrazol-3-yl]pyrazolo[1,5-a]pyridin-2-yl]cyclopropanecarboxamide]"
23,5.3,"Cc1cnc(Nc2cc3cc(-c4c(OC[C@H]5CCN5C)cnn4C)ccn3n2)cn1 [Example 49, 5-[2-methyl-4-[[(2R)-1-methylazetidin-2-yl]methoxy]pyrazol-3-yl]-N-(5-methylpyrazin-2-yl)pyrazolo[1,5-a]pyridin-2-amine]"
24,2.6,"CN1CC[C@@H]1COc1cnn(C)c1-c1ccn2nc(Nc3ccc(C4CC4)nn3)cc2c1 [Example 50, N-(6-cyclopropylpyridazin-3-yl)-5-[2-methyl-4-[[(2R)-1-methylazetidin-2-yl]methoxy]pyrazol-3-yl]pyrazolo[1,5-a]pyridin-2-amine]"
25,3.6,"CCN1CC[C@@H]1COc1cnn(C)c1-c1ccn2nc(NC(=O)C3CC3)cc2c1 [Example 52, N-[5-[4-[[(2R)-1-ethylazetidin-2-yl]methoxy]-2-methyl-pyrazol-3-yl]pyrazolo[1,5-a]pyridin-2-yl]cyclopropanecarboxamide]"
26,68.3,"CC(C)N1CC[C@@H]1COc1cnn(C)c1-c1ccn2nc(NC(=O)C3CC3)cc2c1 [Example 53, N-[5-[4-[[(2R)-1-isopropylazetidin-2-yl]methoxy]-2-methyl-pyrazol-3-yl]pyrazolo[1,5-a]pyridin-2-yl]cyclopropanecarboxamide]"
27,1.3,"Cc1cc(Nc2cc3cc(-c4c(OC[C@H]5CCN5C)cnn4C)ccn3n2)ncn1 [Example 55, 5-[2-methyl-4-[[(2R)-1-methylazetidin-2-yl]methoxy]pyrazol-3-yl]-N-(6-methylpyrimidin-4-yl)pyrazolo[1,5-a]pyridin-2-amine]"
28,2500,"CC(=O)N1CC[C@@H]1COc1cnn(C)c1-c1ccn2nc(NC(=O)C3CC3)cc2c1 [Example 56, N-[5-[4-[[(2R)-1-acetylazetidin-2-yl]methoxy]-2-methyl-pyrazol-3-yl]pyrazolo[1,5-a]pyridin-2-yl]cyclopropanecarboxamide]"
29,471,"Cc1nc(C)c(C)c(Nc2cc3cc(-c4c(OC[C@H]5CCN5C)cnn4C)ccn3n2)n1 [Example 57, 5-[2-methyl-4-[[(2R)-1-methylazetidin-2-yl]methoxy]pyrazol-3-yl]-N-(2,5,6-trimethylpyrimidin-4-yl)pyrazolo[1,5-a]pyridin-2-amine]"
30,1140,"Cc1cc(C)c(Nc2cc3cc(-c4c(OC[C@H]5CCN5C)cnn4C)ccn3n2)nn1 [Example 61, N-(4,6-dimethylpyridazin-3-yl)-5-[2-methyl-4-[[(2R)-1-methylazetidin-2-yl]methoxy]pyrazol-3-yl]pyrazolo[1,5-a]pyridin-2-amine]"

row,Compound,IC50 [nM]
1,"Cn1ncc(O[C@@H]2C[C@H]3COC[C@@H](C2)N3)c1-c1ccn2nc(NC(=O)C3CC3)cc2c1 [Example 43, exo-N-[5-[2-methyl-4-[[(1R,5S)-3-oxa-9-azabicyclo[3.3.1]nonan-7-yl]oxy]pyrazol-3-yl]pyrazolo[1,5-a]pyridin-2-yl]cyclopropanecarboxamide]",17.3
